Measured values from PubChem BioAssay AID330 (DTP/NCI, 2004).
Several values for one entry are separate records, joined by “and”; a condition that tells them apart may be missing. Equal values may be shown once. Inconclusive results and toxic doses are left out.

Tested on: P388 leukemia ip, CD2F1 mice, survival T/C
Assay: NCI In Vivo Anticancer Drug Screen. Data for tumor model P388 Leukemia (intraperitoneal) in CD2F1 (CDF1) mice
Conditions: endpoint: median survival time, higher = longer survival
Procedure, shortened: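 Mice carrying the transplanted tumor received test compound or vehicle. Survival was recorded in each group, and the value is the treated-group measurement divided by that of the vehicle-treated control group.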

[1] = dose: 50.0 mg/kg/injection, schedule: Q01DX005 (ip), vehicle: Klucel (hydroxypropylcellulose) (HPC)
[2] = dose: 100.0 mg/kg/injection, schedule: Q01DX005 (ip), vehicle: Klucel (hydroxypropylcellulose) (HPC)
[3] = dose: 200.0 mg/kg/injection, schedule: Q01DX005 (ip), vehicle: Klucel (hydroxypropylcellulose) (HPC)
[4] = dose: 25.0 mg/kg/injection, schedule: Q01DX009 (ip), vehicle: saline with Tween-80
[5] = dose: 50.0 mg/kg/injection, schedule: Q01DX009 (ip), vehicle: saline with Tween-80
[6] = dose: 100.0 mg/kg/injection, schedule: Q01DX009 (ip), vehicle: saline with Tween-80
[7] = dose: 60.0 mg/kg/injection, schedule: Q01DX005 (ip), vehicle: Klucel (hydroxypropylcellulose) (HPC)
[8] = dose: 120.0 mg/kg/injection, schedule: Q01DX005 (ip), vehicle: Klucel (hydroxypropylcellulose) (HPC)
[9] = dose: 240.0 mg/kg/injection, schedule: Q01DX005 (ip), vehicle: Klucel (hydroxypropylcellulose) (HPC)
[10] = dose: 50.0 mg/kg/injection, schedule: Q01DX005 (ip), vehicle: saline with Tween-80
[11] = dose: 100.0 mg/kg/injection, schedule: Q01DX005 (ip), vehicle: saline with Tween-80
[12] = dose: 200.0 mg/kg/injection, schedule: Q01DX005 (ip), vehicle: saline with Tween-80
[13] = dose: 60.0 mg/kg/injection, schedule: Q01DX005 (ip), vehicle: saline with Tween-80
[14] = dose: 120.0 mg/kg/injection, schedule: Q01DX005 (ip), vehicle: saline with Tween-80
[15] = dose: 240.0 mg/kg/injection, schedule: Q01DX005 (ip), vehicle: saline with Tween-80

Q: With `CCCCCCCCCCCC(=O)CCCCC` as the molecule, how does the T/C (dose: 100.0 mg/kg/injection, schedule: Q01DX009 (ip), vehicle: other) read?
A: 90 % of control

Q: And the T/C (dose: 200.0 mg/kg/injection, schedule: Q01DX009 (ip), vehicle: other)?
A: 100 % of control

Q: What about the T/C (dose: 400.0 mg/kg/injection, schedule: Q01DX009 (ip), vehicle: other) of the same molecule?
A: 104 % of control

Q: Which results are given for `COc1ccc(-c2c3ccc(=O)c(OC)cc3cn2C)cc1OC`?
A: T/C [1]: 102 % of control; T/C [2]: 94 % of control; T/C [3]: 94 % of control

Q: `Nc1ccn([C@@H]2C=C(CO)[C@@H](O)[C@H]2O)c(=O)n1` was tested. Which T/C (dose: 0.5 mg/kg/injection, schedule: Q01DX009 (ip), vehicle: saline) did it give?
A: 150 % of control

Q: And the T/C (dose: 1.0 mg/kg/injection, schedule: Q01DX009 (ip), vehicle: saline)?
A: 188 % of control

Q: What about the T/C (dose: 2.25 mg/kg/injection, schedule: Q01DX009 (ip), vehicle: saline) of the same molecule?
A: 111 % of control and 87 % of control

Q: `C[C@@H]1C[C@@H]2c3cccc4[nH]cc(c34)C[C@H]2N(C)C1` was tested. Which T/C (dose: 3.12 mg/kg/injection, schedule: Q01DX005 (ip), vehicle: saline with Tween-80) did it give?
A: 98 % of control

Q: What about the T/C (dose: 6.25 mg/kg/injection, schedule: Q01DX005 (ip), vehicle: saline with Tween-80) of the same molecule?
A: 98 % of control

Q: What about the T/C (dose: 12.5 mg/kg/injection, schedule: Q01DX005 (ip), vehicle: saline with Tween-80) of the same molecule?
A: 100 % of control

Q: What does the source list for `c1ccc(C2=NNC(c3ccccc3)=NN2)cc1`?
A: T/C (dose: 0.78 mg/kg/injection, schedule: Q01DX009 (ip), vehicle: saline with Tween-80): 107 % of control; T/C (dose: 1.56 mg/kg/injection, schedule: Q01DX009 (ip), vehicle: saline with Tween-80): 95 % of control; T/C (dose: 3.12 mg/kg/injection, schedule: Q01DX009 (ip), vehicle: saline with Tween-80): 89 % of control; T/C [4]: 93 % of control; T/C [5]: 100 % of control; T/C (dose: 50.0 mg/kg/injection, schedule: Q04DX003 (ip), vehicle: Klucel (hydroxypropylcellulose) (HPC)): 97 % of control; T/C [6]: 90 % of control; T/C (dose: 100.0 mg/kg/injection, schedule: Q04DX003 (ip), vehicle: Klucel (hydroxypropylcellulose) (HPC)): 104 % of control; T/C (dose: 200.0 mg/kg/injection, schedule: Q04DX003 (ip), vehicle: Klucel (hydroxypropylcellulose) (HPC)): 97 % of control; T/C (dose: 400.0 mg/kg/injection, schedule: Q04DX003 (ip), vehicle: Klucel (hydroxypropylcellulose) (HPC)): 94 % of control

Q: Which results are given for `CS(=O)(=O)c1ccc(C[N+]23CN4CN(CN(C4)C2)C3)cc1`?
A: T/C [7]: 98 % of control; T/C [8]: 99 % of control; T/C [9]: 98 % of control

Q: `CCOC(=O)ON(C)C(=O)OCC` was tested. Which T/C [10] did it give?
A: 102 % of control

Q: And the T/C [11]?
A: 102 % of control

Q: And the T/C [12]?
A: 107 % of control

Q: What about the T/C (dose: 400.0 mg/kg/injection, schedule: Q01DX005 (ip), vehicle: saline with Tween-80) of the same molecule?
A: 102 % of control

Q: What does the source list for `Nc1cn(C2OC(CO)C(O)C2O)c(=O)[nH]c1=O` (stereo not given)?
A: T/C [4]: 95 % of control; T/C [5]: 92 % of control

Q: With `O=[N+]([O-])c1ccc(Oc2c3ccccc3nc3ccccc23)cc1` as the molecule, how does the T/C [10] read?
A: 90 % of control

Q: And the T/C [11]?
A: 90 % of control

Q: And the T/C [12]?
A: 93 % of control

Q: Which T/C (dose: 100.0 mg/kg/injection, schedule: Q01DX001 (ip), vehicle: saline with Tween-80) does the source give for `O=C(O)c1nn(-c2ccccc2)c2c1CSc1ccccc1-2` here?
A: 109 % of control

Q: What about the T/C (dose: 200.0 mg/kg/injection, schedule: Q01DX001 (ip), vehicle: saline with Tween-80) of the same molecule?
A: 104 % of control

Q: For `CCCCC(NC(=O)CCl)C(=O)O` (stereo not given), which T/C (dose: 50.0 mg/kg/injection, schedule: Q01DX009 (ip), vehicle: saline) is on record?
A: 98 % of control

Q: What about the T/C (dose: 100.0 mg/kg/injection, schedule: Q01DX009 (ip), vehicle: saline) of the same molecule?
A: 95 % of control

Q: And the T/C (dose: 200.0 mg/kg/injection, schedule: Q01DX009 (ip), vehicle: saline)?
A: 98 % of control

Q: `OC(Nc1ncccn1)C(Cl)(Cl)Cl` (stereo not given) was tested. Which T/C [5] did it give?
A: 104 % of control

Q: What about the T/C [6] of the same molecule?
A: 100 % of control

Q: What about the T/C (dose: 200.0 mg/kg/injection, schedule: Q01DX009 (ip), vehicle: saline with Tween-80) of the same molecule?
A: 100 % of control

Q: For `CCc1ccc(N=Cc2ccc(OC(=O)c3ccc(OC)cc3)c(OC)c2)cc1`, which T/C [13] is on record?
A: 96 % of control

Q: What about the T/C [14] of the same molecule?
A: 94 % of control

Q: What about the T/C [15] of the same molecule?
A: 92 % of control

Q: `CCn1c(=O)c(C#N)c2n(CC)c3cc(C)c(C)cc3n2c1=O` was tested. Which T/C [13] did it give?
A: 90 % of control

Q: What about the T/C [14] of the same molecule?
A: 86 % of control

Q: What about the T/C [15] of the same molecule?
A: 86 % of control

Q: What does the source list for `CCOC(=O)C1CN2C(=O)CCC2C1=O` (stereo not given)?
A: T/C (dose: 60.0 mg/kg/injection, schedule: Q01DX005 (ip), vehicle: saline): 104 % of control; T/C (dose: 120.0 mg/kg/injection, schedule: Q01DX005 (ip), vehicle: saline): 103 % of control; T/C (dose: 240.0 mg/kg/injection, schedule: Q01DX005 (ip), vehicle: saline): 103 % of control

Q: With `CC(=O)C(c1ccccc1)S(=O)(=O)c1ccc(C)cc1` (stereo not given) as the molecule, how does the T/C (dose: 25.0 mg/kg/injection, schedule: Q01DX005 (ip), vehicle: saline with Tween-80) read?
A: 97 % of control

Q: And the T/C [10]?
A: 94 % of control

Q: And the T/C [11]?
A: 87 % of control

Q: Which results are given for `O=C1C=C(NCCCC2CCCN3CCCCC23)C(=O)c2ccccc21` (stereo not given)?
A: T/C (dose: 6.25 mg/kg/injection, schedule: Q01DX005 (ip), vehicle: Klucel (hydroxypropylcellulose) (HPC)): 95 % of control; T/C (dose: 12.5 mg/kg/injection, schedule: Q01DX005 (ip), vehicle: Klucel (hydroxypropylcellulose) (HPC)): 98 % of control; T/C (dose: 25.0 mg/kg/injection, schedule: Q01DX005 (ip), vehicle: Klucel (hydroxypropylcellulose) (HPC)): 98 % of control

Q: How did the T/C (dose: 60.0 mg/kg/injection, schedule: Q01DX005 (ip), vehicle: Klucel + Tween-80) turn out when `CCOc1c(N=Nc2ccccc2C)c(C)nn1C(N)=S` was run?
A: 100 % of control

Q: What about the T/C (dose: 120.0 mg/kg/injection, schedule: Q01DX005 (ip), vehicle: Klucel + Tween-80) of the same molecule?
A: 97 % of control

Q: What about the T/C (dose: 240.0 mg/kg/injection, schedule: Q01DX005 (ip), vehicle: Klucel + Tween-80) of the same molecule?
A: 100 % of control

Q: Which T/C [1] does the source give for `CN1CCC/C1=C1/CCc2ccccc2C1=O` here?
A: 103 % of control

Q: What about the T/C [2] of the same molecule?
A: 108 % of control

Q: And the T/C [3]?
A: 107 % of control

Q: Which T/C (dose: 50.0 mg/kg/injection, schedule: Q01DX005 (ip), vehicle: saline) does the source give for `O=C1NN2CCCN=C2c2cnccc21` here?
A: 110 % of control

Q: And the T/C (dose: 100.0 mg/kg/injection, schedule: Q01DX005 (ip), vehicle: saline)?
A: 97 % of control

Q: And the T/C (dose: 200.0 mg/kg/injection, schedule: Q01DX005 (ip), vehicle: saline)?
A: 89 % of control

Q: Which T/C (dose: 6.25 mg/kg/injection, schedule: Q01DX009 (ip), vehicle: Klucel (hydroxypropylcellulose) (HPC)) does the source give for `Cc1cc2n[se]nc2cc1C` here?
A: 107 % of control

Q: And the T/C (dose: 12.5 mg/kg/injection, schedule: Q01DX009 (ip), vehicle: Klucel (hydroxypropylcellulose) (HPC))?
A: 96 % of control

Q: And the T/C (dose: 25.0 mg/kg/injection, schedule: Q01DX009 (ip), vehicle: Klucel (hydroxypropylcellulose) (HPC))?
A: 100 % of control

Q: With `Cc1cc(=O)c(C(=O)NC(=O)c2ccccn2)c(C)o1` as the molecule, how does the T/C [1] read?
A: 101 % of control

Q: What about the T/C [2] of the same molecule?
A: 101 % of control

Q: What about the T/C [3] of the same molecule?
A: 107 % of control

Q: With `Cc1cc2c(cc1C)C(=O)CCC(=O)N2` as the molecule, how does the T/C [13] read?
A: 102 % of control

Q: What about the T/C [14] of the same molecule?
A: 97 % of control

Q: And the T/C [15]?
A: 96 % of control

Q: Which results are given for `O=c1c(Cc2ccccc2)c([O-])[n+](Cc2ccccc2)c(-c2ccccc2)n1-c1ccccc1`?
A: T/C [7]: 98 % of control; T/C [8]: 91 % of control; T/C [9]: 90 % of control

Q: Which T/C (dose: 6.25 mg/kg/injection, schedule: Q01DX009 (ip), vehicle: saline) does the source give for `CCN1c2ccccc2C(Cl)(c2ccc(N(C)C)cc2)c2ccccc21` here?
A: 116 % of control

Q: What about the T/C (dose: 12.5 mg/kg/injection, schedule: Q01DX009 (ip), vehicle: saline) of the same molecule?
A: 120 % of control

Q: `CCOC(=O)C(Cc1c[nH]c2ccccc12)NC(=O)[C@@]1(O)[C@H](O)[C@]2(CC)C=CCN3CC[C@@]4(c5cc([C@@]6(C(=O)OC)C[C@@H]7CN(CCc8c6[nH]c6ccccc86)C[C@](O)(CC)C7)c(OC)cc5N(C)[C@@H]14)[C@@H]32` (stereo not given in full) was tested. Which T/C (dose: 1.0 mg/kg/injection, schedule: Q01DX001 (ip), vehicle: saline) did it give?
A: 108 % of control and 109 % of control

Q: What about the T/C (dose: 2.0 mg/kg/injection, schedule: Q01DX001 (ip), vehicle: saline) of the same molecule?
A: 108 % of control and 112 % of control

Q: What about the T/C (dose: 4.0 mg/kg/injection, schedule: Q01DX001 (ip), vehicle: saline) of the same molecule?
A: 109 % of control and 116 % of control

Q: And the T/C (dose: 8.0 mg/kg/injection, schedule: Q01DX001 (ip), vehicle: saline)?
A: 115 % of control and 118 % of control

Q: And the T/C (dose: 32.0 mg/kg/injection, schedule: Q01DX001 (ip), vehicle: saline)?
A: 153 % of control and 157 % of control
